Laboratory results published in patent publication US20220279826A1, “OFF-FLAVOR SUPPRESSING AGENT” (AJINOMOTO CO., INC., priority 2019, published 2022).

Legend:
[1] = Sensory evaluation of off-taste suppressing effect in 0.8 wt % potassium chloride aqueous solution (Experimental Examples 1 and 2)
Procedure: Each compound shown in the following Tables 1 to 13 was added to a 0.8 wt % potassium chloride aqueous solution at the concentration (addition concentration) shown in the following Tables 1 to 13 to prepare each evaluation sample.
(§1) Based on the following evaluation criteria, a panel of two experts determined by consensus the intensity of off-tastes (bitter taste, metallic taste, harsh taste, astringent taste) derived from potassium chloride in each evaluation sample, by reference to each potassium chloride aqueous solution adjusted to 0.8 wt %, 0.75 wt %, 0.7 wt %, or 0.65 wt %.
−: intensity of the same level as potassium chloride aqueous solution with potassium chloride concentration of not less than 0.8 wt %
+: intensity of the same level as potassium chloride aqueous solution with potassium chloride concentration of not less than 0.75 wt % and less than 0.8 wt %
++: intensity of the same level as potassium chloride aqueous solution with potassium chloride concentration of not less than 0.7 wt % and less than 0.75 wt %
+++: intensity of the same level as potassium chloride aqueous solution with potassium chloride concentration of not less than 0.65 wt % and less than 0.7 wt %
Each compound shown in the following Table 14 was added to a 0.8 wt % potassium chloride aqueous solution at the concentration (addition concentration) shown in the following Table 14 to prepare each evaluation sample.

[2] = Sensory evaluation in Japanese noodle soup base solution with potassium chloride (0.2 g) (Experimental Example 5); settings: for off-taste suppressing effect: Japanese noodle soup base solution, potassium chloride 0.2 g; for intensity of off-tastes (bitter taste, metallic taste, harsh taste, astringent taste) derived from potassium chloride: base solution of Table 19
Procedure: Potassium chloride (0.2 g) was added to a commercially available Japanese noodle soup base (manufactured by Yamaki Co., Ltd.) (11.1 g), and dissolved by adding hot water (88.7 g) to prepare a base solution.
Each compound shown in the following Table 19 was added to the base solution prepared above so as to achieve the concentration (addition concentration) shown in the following Table 19 to prepare each evaluation sample.
as §1, with “0.2” for “0.8”, “0.15” for “0.75”, “%” for “%, 0.7 wt %,”, “0.1” for “0.65”

[3] = 0.8 wt % potassium chloride aqueous solution, addition concentration 100 weight ppb (12.5 weight ppm with respect to potassium chloride)
[4] = in words, potassium chloride aqueous solutions, Tables 1 to 14
[5] = potassium chloride aqueous solutions, Tables 1 to 14
[6] = 0.8 wt % potassium chloride aqueous solution, addition concentration 1 weight ppb (0.125 weight ppm with respect to potassium chloride)
[7] = 0.8 wt % potassium chloride aqueous solution, addition concentration 5 weight ppb (0.625 weight ppm with respect to potassium chloride)
[8] = 0.8 wt % potassium chloride aqueous solution, addition concentration 10 weight ppb (1.25 weight ppm with respect to potassium chloride)
[9] = 0.8 wt % potassium chloride aqueous solution, addition concentration 50 weight ppb (6.25 weight ppm with respect to potassium chloride)
[10] = 0.8 wt % potassium chloride aqueous solution, addition concentration 500 weight ppb (62.5 weight ppm with respect to potassium chloride)
[11] = 0.8 wt % potassium chloride aqueous solution, addition concentration 1000 weight ppb (125 weight ppm with respect to potassium chloride)

Q: Which results are given for `CCc1ccco1` [2-ethylfuran, reference compound]?
A: off-taste suppressing effect [1, 3]: − (intensity of the same level as potassium chloride aqueous solution with potassium chloride concentration of not less than 0.8 wt %); off-taste suppressing effect [1, 4]: could not be confirmed; intensity of off-tastes (bitter taste, metallic taste, harsh taste, astringent taste) derived from potassium chloride [1, 5]: did not show changes

Q: Which results are given for `CCCCCc1ccco1` [2-pentylfuran, reference compound]?
A: off-taste suppressing effect [1, 3]: − (intensity of the same level as potassium chloride aqueous solution with potassium chloride concentration of not less than 0.8 wt %); off-taste suppressing effect [1, 4]: could not be confirmed; intensity of off-tastes (bitter taste, metallic taste, harsh taste, astringent taste) derived from potassium chloride [1, 5]: did not show changes

Q: What does the source list for `CC(=O)c1cc(C)oc1C` [3-acetyl-2,5-dimethylfuran]?
A: off-taste suppressing effect [1, 6]: + (intensity of the same level as potassium chloride aqueous solution with potassium chloride concentration of not less than 0.75 wt % and less than 0.8 wt %); off-taste suppressing effect [1, 7]: ++ (intensity of the same level as potassium chloride aqueous solution with potassium chloride concentration of not less than 0.7 wt % and less than 0.75 wt %); off-taste suppressing effect [1, 8]: + (intensity of the same level as potassium chloride aqueous solution with potassium chloride concentration of not less than 0.75 wt % and less than 0.8 wt %); intensity of off-tastes (bitter taste, metallic taste, harsh taste, astringent taste) derived from potassium chloride [1, 5]: decreased; off-taste suppressing effect ([2]; addition concentration 5 weight ppb (2.5 weight ppm with respect to potassium chloride)): +++ (intensity of the same level as potassium chloride aqueous solution with potassium chloride concentration of less than 0.1 wt %); intensity of off-tastes (bitter taste, metallic taste, harsh taste, astringent taste) derived from potassium chloride [2]: decreased

Q: Which results are given for `CC(=O)OC1=C(C)OC(C)C1=O` (stereo not shown) [4-acetoxy-2,5-dimethyl-3(2H)-furanone]?
A: off-taste suppressing effect [1, 9]: + (intensity of the same level as potassium chloride aqueous solution with potassium chloride concentration of not less than 0.75 wt % and less than 0.8 wt %); off-taste suppressing effect [1, 3]: ++ (intensity of the same level as potassium chloride aqueous solution with potassium chloride concentration of not less than 0.7 wt % and less than 0.75 wt %); off-taste suppressing effect [1, 10]: + (intensity of the same level as potassium chloride aqueous solution with potassium chloride concentration of not less than 0.75 wt % and less than 0.8 wt %); intensity of off-tastes (bitter taste, metallic taste, harsh taste, astringent taste) derived from potassium chloride [1, 5]: decreased; off-taste suppressing effect ([2]; addition concentration 100 weight ppb (50 weight ppm with respect to potassium chloride)): + (intensity of the same level as potassium chloride aqueous solution with potassium chloride concentration of not less than 0.15 wt % and less than 0.2 wt %); intensity of off-tastes (bitter taste, metallic taste, harsh taste, astringent taste) derived from potassium chloride [2]: decreased

Q: Which results are given for `CCC1OC(=O)C(O)=C1C` (stereo not shown) [5-ethyl-3-hydroxy-4-methyl-2(5H)-furanone, reference compound]?
A: off-taste suppressing effect [1, 6]: − (intensity of the same level as potassium chloride aqueous solution with potassium chloride concentration of not less than 0.8 wt %); off-taste suppressing effect [1, 7]: + (intensity of the same level as potassium chloride aqueous solution with potassium chloride concentration of not less than 0.75 wt % and less than 0.8 wt %); off-taste suppressing effect [1, 8]: + (intensity of the same level as potassium chloride aqueous solution with potassium chloride concentration of not less than 0.75 wt % and less than 0.8 wt %); off-taste suppressing effect [1, 9]: − (intensity of the same level as potassium chloride aqueous solution with potassium chloride concentration of not less than 0.8 wt %); off-taste suppressing effect [1, 3]: − (intensity of the same level as potassium chloride aqueous solution with potassium chloride concentration of not less than 0.8 wt %); off-taste suppressing effect [1, 10]: − (intensity of the same level as potassium chloride aqueous solution with potassium chloride concentration of not less than 0.8 wt %); off-taste suppressing effect [1, 11]: − (intensity of the same level as potassium chloride aqueous solution with potassium chloride concentration of not less than 0.8 wt %); off-taste suppressing effect [1, 4]: could be hardly confirmed

Q: For `CCC1=C(O)C(=O)C(C)O1` (stereo not shown) [5-ethyl-4-hydroxy-2-methyl-3(2H)-furanone, reference compound], which off-taste suppressing effect [1, 8] is on record?
A: Its off-taste suppressing effect is “− (intensity of the same level as potassium chloride aqueous solution with potassium chloride concentration of not less than 0.8 wt %)”.

Q: And the off-taste suppressing effect [1, 9]?
A: The off-taste suppressing effect was “+ (intensity of the same level as potassium chloride aqueous solution with potassium chloride concentration of not less than 0.75 wt % and less than 0.8 wt %)”.

Q: What about the off-taste suppressing effect [1, 3] of the same compound?
A: The off-taste suppressing effect was “− (intensity of the same level as potassium chloride aqueous solution with potassium chloride concentration of not less than 0.8 wt %)”.

Q: What about the off-taste suppressing effect [1, 4] of the same compound?
A: The off-taste suppressing effect was “could be hardly confirmed”.

Q: Which off-taste suppressing effect [1, 11] does the source give for `CC(=O)O` [acetic acid, reference compound] here?
A: The off-taste suppressing effect was “− (intensity of the same level as potassium chloride aqueous solution with potassium chloride concentration of not less than 0.8 wt %)”.

Q: What about the off-taste suppressing effect [1, 4] of the same compound?
A: The off-taste suppressing effect was “could not be confirmed”.

Q: What about the “intensity of off-tastes (bitter taste, metallic taste, harsh taste, astringent taste) derived from potassium chloride” value (“intensity of off-tastes” below) [1, 5] of the same compound?
A: Its value is “did not show changes”.

Q: With `CCCC(=O)O` [butyric acid] as the compound, how does the off-taste suppressing effect [1, 3] read?
A: The off-taste suppressing effect was “− (intensity of the same level as potassium chloride aqueous solution with potassium chloride concentration of not less than 0.8 wt %)”.

Q: What about the off-taste suppressing effect [1, 10] of the same compound?
A: The off-taste suppressing effect was “+ (intensity of the same level as potassium chloride aqueous solution with potassium chloride concentration of not less than 0.75 wt % and less than 0.8 wt %)”.

Q: And the off-taste suppressing effect [1, 11]?
A: Its off-taste suppressing effect is “+ (intensity of the same level as potassium chloride aqueous solution with potassium chloride concentration of not less than 0.75 wt % and less than 0.8 wt %)”.

Q: And the “intensity of off-tastes” value [1, 5]?
A: The value was “decreased”.

Q: With `O=CO` [formic acid, reference compound] as the compound, how does the off-taste suppressing effect [1, 11] read?
A: Its off-taste suppressing effect is “− (intensity of the same level as potassium chloride aqueous solution with potassium chloride concentration of not less than 0.8 wt %)”.

Q: And the off-taste suppressing effect [1, 4]?
A: The off-taste suppressing effect was “could not be confirmed”.

Q: What about the “intensity of off-tastes” value [1, 5] of the same compound?
A: Its value is “did not show changes”.

Q: For `CCCCCC(=O)O` [hexanoic acid, reference compound], which off-taste suppressing effect [1, 11] is on record?
A: Its off-taste suppressing effect is “− (intensity of the same level as potassium chloride aqueous solution with potassium chloride concentration of not less than 0.8 wt %)”.

Q: And the off-taste suppressing effect [1, 4]?
A: Its off-taste suppressing effect is “could not be confirmed”.

Q: What about the “intensity of off-tastes” value [1, 5] of the same compound?
A: The value was “did not show changes”.

Q: With `CCCCC(=O)O` [pentanoic acid, reference compound] as the compound, how does the off-taste suppressing effect [1, 11] read?
A: The off-taste suppressing effect was “− (intensity of the same level as potassium chloride aqueous solution with potassium chloride concentration of not less than 0.8 wt %)”.

Q: What about the off-taste suppressing effect [1, 4] of the same compound?
A: Its off-taste suppressing effect is “could not be confirmed”.

Q: And the “intensity of off-tastes” value [1, 5]?
A: Its value is “did not show changes”.
